Results published in BigSolDB 2.1.

CONC(=O)Nc1ccc(-c2sc3c(c2CN(C)C)c(=O)n(-c2ccc(OC)nn2)c(=O)n3Cc2c(F)cccc2F)cc1
solubility (mole fraction)
Conditions	298.15 K	303.15 K	308.15 K	313.15 K	318.15 K	323.15 K
in acetonitrile	0.000483	0.000585	0.000667	0.000752	0.000856	0.000999
in ethanol	0.000134	0.000152	0.000171	0.000209	0.00025	0.000301
in ethyl acetate	0.000368	0.0004	0.00045	0.000505	0.000539	0.000576
in isopropanol	6.6e-05	8.3e-05	0.000103	0.000125	0.000153	0.000191
in methanol	0.000438	0.00051	0.000578	0.000639	0.000713	0.000774
